Test [1] addresses human Cdc7/human ASK complex protein (Homo sapiens (Human), UniProt O00311). The experiment in a line: Inhibitory effect on Cdc7 protein kinase (MSA assay kit). The test is classed as biochemical. The method, then:
[Inhibitory Effect on Cdc7 Protein Kinase]
Measurement of kinase activity was carried out using an MSA assay kit (QuickScout Screening Assist™ Kit, Carna Biosciences, Inc.).
Assay buffer (20 mM HEPES, 0.01% Triton X-100™, 2 mM dithiothreitol, pH 7.5) was used to prepare a substrate mixture solution comprising 4 μM of a kinase-reaction substrate (FITC-labeled MCM2 peptide), 40 mM MgCl2, and 20 μM ATP.
The enzyme supplied in the kit (human Cdc7/human ASK complex protein) was diluted in the assay buffer so as to be at 7 nM, thereby preparing an enzyme solution.
The stock solution of each test compound was diluted in DMSO to prepare diluted DMSO solutions of 10 concentrations (0.00003 mM, 0.0001 mM, 0.0003 mM, 0.001 mM, 0.003 mM, 0.01 mM, 0.03 mM, 0.1 mM, 0.3 mM, 1 mM), each of which was further diluted 25 times in the assay buffer to make a drug solution (a solution containing 4% DMSO).
The kinase reaction was performed in wells of a polypropylene 384-well plate in which 5 μl of each of the drug solutions or of a solvent (assay buffer containing 4% DMSO), 5 μl of the substrate mixture solution, and 10 μl of the enzyme solution were mixed. The assay buffer, instead of the enzyme solution, was added to blank wells. After the reaction at room temperature for 5 hours, 60 μl of the termination buffer supplied in the kit was added to each well to stop the reaction. The percent inhibition of each reaction was determined using a LabChip EZ Reader II system (manufactured by Caliper Life Sciences), according to the protocol provided with the assay kit. In this case, the peak heights of the separated substrate and the phosphorylated substrate were represented as S and P, respectively, and the percent inhibition (%) by a tested compound was calculated according to the following formula: Percent inhibition(%)=(1−(C−A)/(B−A))×100 wherein A denotes P/(P+S) for a blank well, B denotes P/(P+S) for a solvent well, and C denotes P/(P+S) for a compound-added well.
The IC50 value of a tested compound was calculated by regression analysis of the percent inhibition values versus the (logarithmic) concentrations of the tested compound.

Test [2] relates to MCM2 phosphorylation in COLO205 cells. The experiment in a line: Inhibitory effect on MCM2 phosphorylation using cells (Western blot). The test is classed as cell-based. As to conditions: Homo sapiens, COLO 205, 0.1 μM test compound, 24 hours, class by percent phosphorylation of MCM2, read-out: Test Example 2 Inhibitory effect on MCM2 phosphorylation. The method, then: [Inhibitory Effect on Phosphorylation Using Cells]
COLO205 cells derived from human colon adenocarcinoma (RCB2127, RIKEN BRC) were cultured in 10 cm dishes using RPMI-1640 medium (SIGMA, R8758) supplemented with 10% FCS (Equitech-bio) and 5% penicillin/streptomycin (GIBCO, 15140). After the cells were cultured to a confluence of 70 to 90%, the medium was removed, and the cells were treated with trypsin (2 mL, TrypLE Express, GIBCO, 12604-021) and then harvested using a new medium.
COLO205 cells were seeded in 6-well plates (FALCON, 35046) to 2.5×10^5 cells (1 ml) per well and cultured overnight in a 5% CO2 incubator. A drug solution, which was prepared by adding 1.5 μl of a 0.1-mM stock solution in DMSO of a test compound to 500 μl of medium, was added to each well (to a final drug concentration of 0.1 μM), and then cultured for another 24 hours.
Cells were cultured for 24 hours in the presence of a test compound, harvested using a similar way as described above, washed with PBS, and then pelletized and stored at −80° C. The frozen cells were thawed, subsequently suspended immediately in 2×SDS-PAGE electrophoresis buffer (1×10^5 cells per 10 μl), and heated at 95° C. for 10 minutes, leading to the dissolution and denaturation of the proteins. The resulting sample solutions were subjected to SDS-PAGE using a 5-20% gradient acrylamide gel (e-PAGEL (5-20%), ATTO, E-T520L). After the electrophoresis was completed, the gel was immersed in tris-glycine buffer supplemented with 20% methanol, and the proteins in the gel were transferred onto a PVDF membrane (MILLIPORE, Immobilon-P, IPVH00010) using a semi-dry transfer apparatus (TRNS-BLOT SD SEMI-DRY […] CELL, BIO RAD).
The transferred PVDF membrane was blocked with 5% skim milk (Difco Skim Milk, BD, 232100), and then subjected to reaction with an anti-MCM2 goat antibody (N-19, Santa Cruz, sc-9839) or anti-phosphorylated MCM2 rabbit antibody (S53) (Bethyl, A300-756A) as a primary antibody and additionally with an anti-α tubulin mouse antibody (Clone DM 1A, SIGMA, 9026) as an internal control. Each band was detected by chemiluminescence using an HRP-labeled anti-goat IgG donkey antibody (Santa Cruz, sc2020), anti-rabbit IgG sheep antibody (Roche, 12015218001), or anti-mouse IgG donkey antibody (Jackson ImmunoResearch, 715-035-151) as a secondary antibody. The combinations of and the diluted concentrations of the primary and secondary antibodies were as indicated below.
The bands which were detected were normalized using the amount of endogenous α-tubulin as a reference, and the percent phosphorylation of MCM2 was calculated for each of the tested compounds. Their inhibitory effects on MCM2 phosphorylation were indicated by a triple asterisk (***) in the case where the percent phosphorylation of MCM2 was less than 20%, by a dual asterisk (**) in the case where the percent phosphorylation of MCM2 was not less than 20% and less than 50%, and by a single asterisk (*) in the case where the percent phosphorylation of MCM2 was not less than 50% and less than 70%.

Setting [3] is: human Cdc7/human ASK complex, FITC-labeled MCM2 peptide substrate, reaction 5 hours at room temperature, read-out: Test Example 1 Cdc7 IC50 value.

Where two headings read alike, the source gives them in different places.

In general, IC50 refers to the concentration that gives 50% inhibition.

human Cdc7/human ASK complex protein, sequence (O00311 whole entry): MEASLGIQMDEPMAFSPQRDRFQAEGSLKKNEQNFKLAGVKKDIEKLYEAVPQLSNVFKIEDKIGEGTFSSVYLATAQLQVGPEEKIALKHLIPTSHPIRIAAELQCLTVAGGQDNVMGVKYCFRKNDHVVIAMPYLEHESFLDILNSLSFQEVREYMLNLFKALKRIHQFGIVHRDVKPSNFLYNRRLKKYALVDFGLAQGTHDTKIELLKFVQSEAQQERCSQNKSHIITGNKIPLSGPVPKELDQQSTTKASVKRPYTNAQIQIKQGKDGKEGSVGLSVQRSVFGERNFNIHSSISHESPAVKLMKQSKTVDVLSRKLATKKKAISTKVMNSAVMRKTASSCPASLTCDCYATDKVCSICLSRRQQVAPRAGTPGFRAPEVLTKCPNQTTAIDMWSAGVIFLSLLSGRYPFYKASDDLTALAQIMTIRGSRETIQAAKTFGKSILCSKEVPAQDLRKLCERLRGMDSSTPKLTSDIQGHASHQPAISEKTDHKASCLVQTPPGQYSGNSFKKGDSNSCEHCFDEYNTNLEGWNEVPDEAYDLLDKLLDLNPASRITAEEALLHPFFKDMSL
human Cdc7/human ASK complex protein, sequence (Q9UBU7 whole entry partner): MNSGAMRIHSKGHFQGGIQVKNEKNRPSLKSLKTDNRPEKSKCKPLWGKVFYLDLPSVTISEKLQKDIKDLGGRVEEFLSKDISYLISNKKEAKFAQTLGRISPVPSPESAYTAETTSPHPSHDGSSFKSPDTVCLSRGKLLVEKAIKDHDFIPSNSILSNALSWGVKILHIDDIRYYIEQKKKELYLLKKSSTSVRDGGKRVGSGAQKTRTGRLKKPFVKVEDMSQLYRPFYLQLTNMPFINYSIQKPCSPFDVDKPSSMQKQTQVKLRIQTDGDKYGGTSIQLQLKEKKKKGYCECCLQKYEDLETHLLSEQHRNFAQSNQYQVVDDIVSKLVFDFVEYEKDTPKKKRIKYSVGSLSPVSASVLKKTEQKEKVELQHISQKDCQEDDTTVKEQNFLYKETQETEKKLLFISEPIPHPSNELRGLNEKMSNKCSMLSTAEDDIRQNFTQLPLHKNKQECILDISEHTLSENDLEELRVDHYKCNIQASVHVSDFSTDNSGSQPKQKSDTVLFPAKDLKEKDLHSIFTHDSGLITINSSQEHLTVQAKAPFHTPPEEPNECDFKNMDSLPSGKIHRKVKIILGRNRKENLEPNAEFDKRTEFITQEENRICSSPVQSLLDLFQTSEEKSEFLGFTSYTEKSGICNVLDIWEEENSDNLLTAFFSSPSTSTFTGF

For `CCOC(=O)C1=C(Nc2ccc3cn[nH]c3c2)O/C(=C\c2c[nH]c3ncccc23)C1=O` [Example 68, Ethyl 5-[(1H-pyrrolo[2,3-b]pyridin-3-yl)methylene]-2-[(6-indazolyl)amino]-4-oxo-4,5-dihydrofuran-3-carboxylate], in test [1] (setting [3]), the IC50 amounted to 4 nM. Besides, in test [2], the inhibition at 0.1 µM was less than 20%. On the same counts, the results for `CCOC(=O)C1=C(NN2CCOCC2)O/C(=C\c2c[nH]c3ncccc23)C1=O` [Example 142, Ethyl 5-[(1H-pyrrolo[2,3-b]pyridin-3-yl)methylene]-2-(morpholinoamino)-4-oxo-4,5-dihydrofuran-3-carboxylate] are 3 nM and 20 to 50%. As to `CCOC(=O)C1=C(Nc2ccc(CN(C)C)cc2C)O/C(=C\c2c[nH]c3ncccc23)C1=O` [Example 129, Ethyl 5-[(1H-pyrrolo[2,3-b]pyridin-3-yl)methylene]-2-({4-[(dimethylamino)methyl]-2-methylphenyl}amino)-4-oxo-4,5-dihydrofuran-3-carboxylate], the IC50 in test [1] (setting [3]) worked out at 9 nM. For the same molecule, the inhibition at 0.1 µM in test [2] was less than 20%.

As for `CCOC(=O)C1=C(Nc2ccc(OCCO)cc2F)OC(=Cc2c[nH]c3ncccc23)C1=O` [Example 81, Ethyl 5-[(1H-pyrrolo[2,3-b]pyridin-3-yl)methylene]-2-{[2-fluoro-4-(2-hydroxyethoxy)phenyl]amino}-4-oxo-4,5-dihydrofuran-3-carboxylate], the IC50 in test [1] (setting [3]) is 5 nM. In addition, the inhibition at 0.1 µM in test [2] is less than 20%.

`Cc1cc(OCCO)ccc1NC1=C(C(=O)OC(C)C)C(=O)/C(=C/c2c[nH]c3ncccc23)O1` [Example 157, Isopropyl 5-[(1H-pyrrolo[2,3-b]pyridin-3-yl)methylene]-2-{[4-(2-hydroxyethoxy)-2-methylphenyl]amino}-4-oxo-4,5-dihydrofuran-3-carboxylate]: in test [1] (setting [3]), the IC50 is 3 nM. Besides, in test [2], the inhibition at 0.1 µM is 20 to 50%. Consider `O=C(O)C1=C(Nc2ccccc2)O/C(=C\c2c[nH]c3ncccc23)C1=O` [Example 22, 5-[(1H-Pyrrolo[2,3-b]pyridin-3-yl)methylene]-4-oxo-2-(phenylamino)-4,5-dihydrofuran-3-carboxylic acid], for which the inhibition at 0.1 µM in test [2] was in the range of 50 to 70%. On to `Cc1cc(F)ccc1NC1=CC(=O)/C(=C/c2c[nH]c3ncccc23)O1` [Example 233, 2-[(1H-Pyrrolo[2,3-b]pyridin-3-yl)methylene]-5-[(4-fluoro-2-methylphenyl)amino]furan-3(2H)-one], for which, in test [1] (setting [3]), the IC50 turned out to be 2 nM. In addition, in test [2], the inhibition at 0.1 µM was 20 to 50%. For the molecule `CC(C)OC(=O)C1=C(NN2CCOCC2)O/C(=C\c2c[nH]c3ncccc23)C1=O` [Example 245, Isopropyl 5-[(1H-pyrrolo[2,3-b]pyridin-3-yl)methylene]-2-(morpholinoamino)-4-oxo-4,5-dihydrofuran-3-carboxylate], the IC50 in test [1] (setting [3]) worked out at 8 nM. Further, in test [2], the inhibition at 0.1 µM is less than 20%.

Regarding `Cc1ccsc1CNC1=CC(=O)/C(=C/c2c[nH]c3ncccc23)O1` [Example 242, 2-[(1H-Pyrrolo[2,3-b]pyridin-3-yl)methylene]-5-{[(3-methyl-2-thienyl)methyl]amino}furan-3(2H)-one], in test [1], the midpoint of inhibition, the IC50, lay at 1 nM. In test [2], the inhibition at 0.1 µM is less than 20%. For `O=C1C=C(Nc2ccc3[nH]ncc3c2)O/C1=C\c1c[nH]c2ncccc12` [Example 239, 2-[(1H-Pyrrolo[2,3-b]pyridin-3-yl)methylene]-5-[(5-indazolyl)amino]furan-3(2H)-one] the same measures were 1 nM and 20 to 50%. `CCOC(=O)C1=C(N2CCCCCC2)O/C(=C\c2c[nH]c3ncccc23)C1=O` [Example 63]: the inhibition at 0.1 µM in test [2] is less than 20%.

On to `O=C(OCCCO)C1=C(Nc2ccc(F)cc2)O/C(=C\c2c[nH]c3ncccc23)C1=O` [Example 89, 3-Hydroxypropyl 5-[(1H-pyrrolo[2,3-b]pyridin-3-yl)methylene]-2-[(4-fluorophenyl)amino]-4-oxo-4,5-dihydrofuran-3-carboxylate], for which, in test [1] (setting [3]), the IC50 was 3 nM. Moreover, the inhibition at 0.1 µM in test [2] was less than 20%. As to `CCOC(=O)C1=C(Nc2ccccc2Cl)O/C(=C\c2c[nH]c3ncccc23)C1=O` [Example 15, Ethyl 5-[(1H-pyrrolo[2,3-b]pyridin-3-yl)methylene]-2-[(2-chlorophenyl)amino]-4-oxo-4,5-dihydrofuran-3-carboxylate], the IC50 in test [1] (setting [3]) worked out at 2 nM. In addition, the inhibition at 0.1 µM in test [2] fell in the range of 20 to 50%.

For `CCOC(=O)C1=C(NN2CCN(CC(F)(F)F)CC2)O/C(=C\c2c[nH]c3ncccc23)C1=O` [Example 246, Ethyl 5-[(1H-pyrrolo[2,3-b]pyridin-3-yl)methylene]-4-oxo-2-{[4-(2,2,2-trifluoroethyl)piperazinyl]amino}-4,5-dihydrofuran-3-carboxylate], in test [1] (setting [3]), the IC50 was found to be 8 nM. Also, the inhibition at 0.1 µM in test [2] was less than 20%. For `COCCOC(=O)C1=C(Nc2ccccc2Cl)O/C(=C\c2c[nH]c3ncccc23)C1=O` [Example 173, 2-Methoxyethyl 5-[(1H-pyrrolo[2,3-b]pyridin-3-yl)methylene]-2-[(2-chlorophenyl)amino]-4-oxo-4,5-dihydrofuran-3-carboxylate] the same measures were 3 nM and less than 20%. With `CCOC(=O)C1=C(N2CCc3ccc(OC)cc3C2)O/C(=C\c2c[nH]c3ncccc23)C1=O` [Example 244, Ethyl 5-[(1H-pyrrolo[2,3-b]pyridin-3-yl)methylene]-2-(7-methoxy-3,4-dihydroisoquinolin-2(1H)-yl)-4-oxo-4,5-dihydrofuran-3-carboxylate], the IC50 in test [1] (setting [3]) was found to be 4 nM. The inhibition at 0.1 µM in test [2] is less than 20%.

In the case of `CCOC(=O)C1=C(N2CCc3ccccc3C2)O/C(=C\c2c[nH]c3ncccc23)C1=O` [Example 102, Ethyl 5-[(1H-pyrrolo[2,3-b]pyridin-3-yl)methylene]-2-(3,4-dihydroisoquinolin-2(1H)-yl)-4-oxo-4,5-dihydrofuran-3-carboxylate], the IC50 in test [1] (setting [3]) worked out at 4 nM. The inhibition at 0.1 µM in test [2] is less than 20%.

Turning to `CCOC(=O)C1=C(N2CCC(C)CC2)O/C(=C\c2c[nH]c3ncccc23)C1=O` [Example 78, Ethyl 5-[(1H-pyrrolo[2,3-b]pyridin-3-yl)methylene]-2-(4-methylpiperidino)-4-oxo-4,5-dihydrofuran-3-carboxylate], the IC50 in test [1] (setting [3]) turned out to be 11 nM. Also, the inhibition at 0.1 µM in test [2] is less than 20%.

The values are drawn from patent publication US8742113B2, “Furanone derivative” (SBI Biotech Co., Ltd., priority 2011, dated 2014).
